Measurements from paper PMC10340592, “Extraction Efficiency and Alpha-Glucosidase Inhibitory Activities of Green Tea Catechins by Different Infusion Methods” (Foods, 2023).

How the values were obtained:
rat alpha-glucosidase = experiment: Inhibitory activity on rat alpha-glucosidase (rat intestinal acetone powder enzyme, maltose substrate, glucose read-out); assay type: biochemical; conditions: mean ± SD
Description: Inhibitory activity on rat alpha-glucosidase was measured as described previously with some modification. Rat alpha-glucosidase protein solution was extracted from rat intestinal acetone powders using the ultrasonication method. Briefly, 100 mg of intestinal acetone powders from rats were added to 1.0 mL of a 0.1 M maleic acid/disodium maleate buffer solution at pH 6.0. Then, one cycle of 30 s of ultrasonication and 30 s of break were repeated 6 times in ice-cold water, and the residue was separated by centrifugation (3000 rpm, 30 min, 4 °C). The supernatant was collected as the enzyme solution for experiments. Then, 50 µL of 4% maltose (w/v) and 25 µL of sample solution (GTEs or catechins) were added to a microtube and preincubated at 37 °C for 3 min. After that, 25 µL of the above enzyme solution was added and incubated at 37 °C for 30 min. Consequently, 400 µL of ultrapure water was added and inactivated at 100 °C for 4 min. After 100 µL of the inactivated reaction solution and 150 µL of color reagent (LabAssay™ Glucose kit) were mixed, the glucose contents (mg/dL) were measured at 505 nm through the spectrometer (Infinite 200 Pro MPlex, Tecan Ltd., Männedorf, Switzerland) according to the manufacturer’s instructions with the standard glucose curve. […] The inhibitory activity of each sample was calculated as follows:Inhibitory activity (%) = 100 − {(Cs − Csb)/(Cc − Cb)} × 100 • Cc: Glucose content of the negative control; • Cb: Glucose content of the blank; • Cs: Glucose content of the sample; • Csb: Glucose content of the sample blank.

human alpha-glucosidase = molecular target: T1, human alpha-glucosidase (Homo sapiens, UniProt P14410); experiment: Inhibitory activity on human alpha-glucosidase in differentiated Caco-2 cells (maltose substrate); assay type: cell-based; conditions: mean ± SD
T1 construct: cultured for 14 days to differentiate into small intestinal epithelial-like cells; host or cells: differentiated Caco-2 cells
Description: Inhibitory activity on human alpha-glucosidase was measured using differentiated Caco-2 cells as described previously with some modification. Briefly, Caco-2 cells were purchased from Riken Bioresource Research Center (Tsukuba, Japan) and cultured in Minimal Essential Medium (MEM) supplemented with 20% fetal bovine serum, 1% penicillin-streptomycin-glutamine, and 1% non-essential amino acids at 37 °C in an atmosphere of 5% CO2. After passaging, cells (2.0 × 10^4 cells/well) were seeded in 48-well plates and cultured for 14 days to differentiate into small intestinal epithelial-like cells. After 14 days, cells were washed twice with PBS, and 150 µL of sample solution at each concentration as well as 150 µL of 3 mM maltose were added. Each sample and maltose solution were dissolved in PBS. The cells were further incubated for 2 h at 37 °C in an atmosphere of 5% CO2. Then, 100 µL of cell culture supernatant was mixed with 150 µL of color reagent and measured at 505 nm through the spectrometer (Infinite 200 Pro MPlex, Tecan Ltd., Männedorf, Switzerland). The inhibitory activity of the sample was calculated in the same way as in the rat alpha-glucosidase experiment.

T1 sequence (P14410 whole entry): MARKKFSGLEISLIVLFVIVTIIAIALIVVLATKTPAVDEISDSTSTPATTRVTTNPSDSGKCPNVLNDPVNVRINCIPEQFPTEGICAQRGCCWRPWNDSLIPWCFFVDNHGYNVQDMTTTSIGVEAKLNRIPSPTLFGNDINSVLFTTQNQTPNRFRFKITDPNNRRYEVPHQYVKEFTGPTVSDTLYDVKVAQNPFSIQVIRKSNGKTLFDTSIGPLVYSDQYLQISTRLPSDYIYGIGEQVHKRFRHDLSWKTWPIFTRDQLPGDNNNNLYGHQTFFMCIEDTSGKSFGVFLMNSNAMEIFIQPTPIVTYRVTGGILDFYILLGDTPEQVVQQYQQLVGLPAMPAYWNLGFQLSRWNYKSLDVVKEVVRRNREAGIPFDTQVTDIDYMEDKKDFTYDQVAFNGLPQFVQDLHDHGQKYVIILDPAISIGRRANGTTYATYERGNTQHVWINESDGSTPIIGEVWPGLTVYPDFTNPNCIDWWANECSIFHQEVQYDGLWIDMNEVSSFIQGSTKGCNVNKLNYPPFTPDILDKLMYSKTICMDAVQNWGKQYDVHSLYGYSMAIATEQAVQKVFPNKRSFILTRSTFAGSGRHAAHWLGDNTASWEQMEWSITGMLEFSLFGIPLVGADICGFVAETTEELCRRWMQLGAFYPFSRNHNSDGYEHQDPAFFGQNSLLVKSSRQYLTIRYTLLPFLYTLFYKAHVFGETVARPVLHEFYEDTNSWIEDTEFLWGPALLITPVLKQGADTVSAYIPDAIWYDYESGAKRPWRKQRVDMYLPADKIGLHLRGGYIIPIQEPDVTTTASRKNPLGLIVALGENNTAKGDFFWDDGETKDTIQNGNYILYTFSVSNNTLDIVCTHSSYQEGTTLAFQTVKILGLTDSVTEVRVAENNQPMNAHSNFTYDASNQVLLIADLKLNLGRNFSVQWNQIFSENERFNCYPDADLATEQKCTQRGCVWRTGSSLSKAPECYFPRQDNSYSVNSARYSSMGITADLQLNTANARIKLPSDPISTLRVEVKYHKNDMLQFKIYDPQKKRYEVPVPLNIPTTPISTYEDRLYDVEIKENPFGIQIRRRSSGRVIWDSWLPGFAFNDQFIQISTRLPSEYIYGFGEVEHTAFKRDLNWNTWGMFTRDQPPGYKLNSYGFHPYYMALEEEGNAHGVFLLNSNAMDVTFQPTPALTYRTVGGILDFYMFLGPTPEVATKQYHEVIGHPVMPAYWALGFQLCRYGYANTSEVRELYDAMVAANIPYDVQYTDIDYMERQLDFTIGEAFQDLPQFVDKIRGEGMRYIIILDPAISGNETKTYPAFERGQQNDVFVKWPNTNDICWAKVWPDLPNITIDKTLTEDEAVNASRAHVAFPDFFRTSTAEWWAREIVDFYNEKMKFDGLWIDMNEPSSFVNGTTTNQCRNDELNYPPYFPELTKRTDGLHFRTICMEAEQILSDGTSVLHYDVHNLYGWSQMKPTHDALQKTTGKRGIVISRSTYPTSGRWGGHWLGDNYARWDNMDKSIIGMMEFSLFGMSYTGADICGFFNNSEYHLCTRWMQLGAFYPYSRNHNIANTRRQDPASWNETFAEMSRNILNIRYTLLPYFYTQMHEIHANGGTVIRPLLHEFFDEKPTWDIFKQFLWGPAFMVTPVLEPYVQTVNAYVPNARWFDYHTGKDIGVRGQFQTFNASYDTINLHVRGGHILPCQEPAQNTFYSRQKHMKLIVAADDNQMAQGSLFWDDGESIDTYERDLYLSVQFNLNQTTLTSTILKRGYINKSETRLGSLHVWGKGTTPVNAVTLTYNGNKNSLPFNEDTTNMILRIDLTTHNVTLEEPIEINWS

Row | IC50 (rat alpha-glucosidase) [µM] | IC50 (human alpha-glucosidase) [µM] | SMILES
1 | 675 ± 15.7 | 134 ± 2.2 | Oc1cc(O)c2c(c1)O[C@H](c1ccc(O)c(O)c1)[C@H](O)C2 [EC, (−)-epicatechin]
2 | 1030 ± 64.5 | – | O=C(O)c1cc(O)c(O)c(O)c1 [GA, gallic acid, reference compound]
3 | 1200 ± 79.6 | – | Oc1cc(O)c2c(c1)O[C@H](c1ccc(O)c(O)c1)[C@@H](O)C2 [(+)C, (+)-catechin]
4 | 46 ± 3.73 | 90.7 ± 15.8 | O=C(O[C@@H]1Cc2c(O)cc(O)cc2O[C@@H]1c1cc(O)c(O)c(O)c1)c1cc(O)c(O)c(O)c1 [EGCg, (−)-epigallocatechin-3-gallate]
5 | 2.17 ± 0.23 | – | C[C@H]1O[C@H](O[C@H]2[C@H](O)[C@@H](O)[C@@H](O[C@H]3[C@H](O)[C@@H](O)C(O)O[C@@H]3CO)O[C@@H]2CO)[C@H](O)[C@@H](O)[C@@H]1N[C@H]1C=C(CO)[C@@H](O)[C@H](O)[C@H]1O (some centres unmarked) [acarbose, reference compound]
6 | 112 ± 7.8 | – | O=C(O[C@@H]1Cc2c(O)cc(O)cc2O[C@H]1c1ccc(O)c(O)c1)c1cc(O)c(O)c(O)c1 [Cg, (−)-catechin-3-gallate]
7 | 161 ± 2.4 | – | O=C(O[C@@H]1Cc2c(O)cc(O)cc2O[C@H]1c1cc(O)c(O)c(O)c1)c1cc(O)c(O)c(O)c1 [GCg, (−)-gallocatechin-3-gallate]
8 | 96.9 ± 4.5 | 78.4 ± 15.2 | O=C(O[C@@H]1Cc2c(O)cc(O)cc2O[C@@H]1c1ccc(O)c(O)c1)c1cc(O)c(O)c(O)c1 [ECg, (−)-epicatechin-3-gallate]

Row | SMILES | IC50 (rat alpha-glucosidase) [µM] | IC50 (human alpha-glucosidase) [µM]
9 | Oc1cc(O)c2c(c1)O[C@@H](c1cc(O)c(O)c(O)c1)[C@H](O)C2 [GC, (−)-gallocatechin] | 798 ± 26.8 | –
10 | Oc1cc(O)c2c(c1)O[C@H](c1cc(O)c(O)c(O)c1)[C@H](O)C2 [EGC, (−)-epigallocatechin] | 713 ± 35.3 | 214 ± 3.8
